Paper PMC8739290, “A phase 1b study of erlotinib and momelotinib for the treatment of EGFR-mutated, tyrosine kinase inhibitor-naive metastatic non-small cell lung cancer” (Cancer Chemotherapy and Pharmacology, 2021)
Read-outs that look alike come from different tables or passages of the source.

Legend:
[1] = test system: patients with EGFR TKI-naive, EGFR-mutated NSCLC; assay: Safety in phase 1b dose-escalation study: DLTs and adverse events (CTCAE version 4.03)
From the text: This was an open-label, dose-escalation phase 1b study, which comprised a dose-escalation phase, followed by a planned, randomized, expansion phase of the combination of erlotinib plus momelotinib vs. erlotinib alone (ClinicalTrials.gov Identifier: NCT02206763). An erlotinib lead-in was utilized during the dose-escalation phase since erlotinib’s toxicities of rash and diarrhea onset in the first 2–3 weeks of treatment allowing for (i) dose adjustment for erlotinib-related toxicities as per clinical standard of care prior to combination with momelotinib; (ii) examination of the impact of momelotinib on erlotinib steady-state pharmacokinetics; and (iii) accurate assessment of toxicity attribution during the combination treatment period.
Patients were screened within 28 days of the start of study treatment and cycles were defined as 28 days. Erlotinib was self-administered orally once daily (QD) at least 1 h before or 2 h after a meal, with doses permitted at 50, 75, 100, or 150 mg. Dose reductions were permitted for management of erlotinib-related toxicity such as rash and diarrhea. Momelotinib was dose escalated following a standard 3 + 3 design starting at 100 mg QD (Table 1). Momelotinib was self-administered orally QD or twice daily (BID) (Table 1), with the latter planned dosing frequency differing from that used in myelofibrosis trials. Study treatment continued until disease progression, unacceptable toxicity, or consent withdrawal.
The primary endpoint was the incidence of dose-limiting toxicities (DLTs). Physical exams and safety labs were performed on day 1 of cycle 1, day 15 of cycle 1, and on the first day of each cycle thereafter. Adverse events (AEs) were coded using the Medical Dictionary for Regulatory Activities (MedDRA), graded according to the Common Terminology Criteria for Adverse Events (CTCAE) version 4.03, and collected until 30 days after the last dose of the study treatment.
DLTs were assessed during the first 28 days of combined erlotinib and momelotinib treatment and defined as clinically significant AEs related to study treatment. Prespecified hematologic DLTs only included grade 4 neutropenia (absolute neutrophil count [ANC] < 500/μL) and grade 4 thrombocytopenia (platelet count < 25,000/μL). Important exceptions for related grade 3 nonhematologic toxicities included grade 3 nausea or vomiting ≤ 48 h duration, diarrhea or rash that improved to grade 0 to 1 within 21 days of interruption of erlotinib, and alanine aminotransferase (ALT) or aspartate aminotransferase (AST) ≥ 5 times the upper limit of normal (ULN) that improved to ≤ 3 times the ULN within 21 days. Treatment delays of ≥ 28 days due to a treatment-emergent AEs (TEAEs) were also considered DLTs.
(§1) Any patient who received ≥ 1 dose of study drug was included in the safety and efficacy analyses. Descriptive statistics were used to summarize study characteristics, DLTs, and AEs, including by dose level. ORR was summarized with corresponding two-sided 90% exact confidence intervals (CIs) using the binomial distribution. Both OS and PFS were summarized using Kaplan–Meier estimates and corresponding 90% CIs. Patient concentration data and PK parameters for erlotinib, momelotinib, and its major metabolite GS-644603 were summarized by dose level using descriptive statistics.

[2] = test system: patients with EGFR-mutated NSCLC; settings: erlotinib monotherapy, cited from earlier work
[3] = test system: STAT3 signaling in EGFR-mutant cell lines; parameters: method as in PMID 25065853, PMID 22712764; settings: via autocrine- and paracrine-secreted factors such as IL-6; cited from earlier work
[4] = Pharmacokinetics of erlotinib during monotherapy and in combination with momelotinib (LC–MS/MS); assay type: in vivo, human; settings: for Cmax: mean (%CV)
Protocol: (§2) Prior to momelotinib dosing, blood samples were collected before a dose of erlotinib and at 0.5, 1, 2, 4, 6, 8, and 24 h after erlotinib dosing. On day 15 of cycle 1, blood samples were collected at the same time points after dosing with momelotinib and erlotinib (the 24-h time point was only applicable for momelotinib QD dosing). The concentrations of momelotinib and its major metabolite GS-644603 were evaluated using a liquid chromatography-tandem mass spectrometry (LC–MS/MS) assay with solid phase extraction validated over the range of 0.5–1000 ng/mL for each analyte. The concentration of erlotinib was determined using an LC–MS/MS assay with protein precipitation validated over the range of 5–5000 ng/mL. […] Pharmacokinetic (PK) parameters were estimated using standard noncompartmental methods with Phoenix WinNonlin® software (Certara, Princeton, NJ).
as §1

aldehyde oxidase = test system: aldehyde oxidase; parameters: method as in PMID 32393528; settings: cited from earlier work
[5] = Steady-state pharmacokinetics of momelotinib and metabolite GS-644603 (LC–MS/MS, noncompartmental); assay type: in vivo, human; settings: for half-life / Cmax / Tmax: day 15 of cycle 1; for half-life / Tmax: median (Q1, Q3); for Cmax: mean (%CV)
Protocol: as §2, §1

[6] = test system: patients with KRAS-mutated NSCLC; parameters: method as in PMID 30087028; settings: cited from earlier work
[7] = test system: pSTAT3 in IL-6–stimulated lymphocytes; assay: pSTAT3 phospho-flow cytometry on whole blood of patients after 2 weeks on momelotinib (exploratory); assay type: cell-based, human; settings: whole blood of 8 patients, data not shown
[8] = test system: pancreatic adenocarcinoma; parameters: method as in PMID 30105668; settings: momelotinib added to nab-paclitaxel and gemcitabine; cited from earlier work
[9] = test system: JAK1/2-mediated STAT3 phosphorylation in IL-6–stimulated human peripheral blood mononuclear cells; settings: read-out: mean half maximal effective concentration, inhibition of JAK1/2-mediated STAT3 phosphorylation; cited from earlier work
EGFR-mutated NSCLC = assay: Efficacy in phase 1b study per RECIST version 1.1 (ORR, DoR, PFS, OS); assay type: in vivo, human
Protocol: Imaging by computed tomography (CT) with contrast was performed at baseline, every 8 weeks during year 1 and every 12 weeks thereafter. If a patient had brain metastases, brain magnetic resonance imaging (MRI) was repeated on the same schedule.

[10] = test system: patients with documented progression on erlotinib; parameters: method as in PMID 27613527; settings: ruxolitinib in combination with erlotinib, cited from earlier work
[11] = test system: colony formation in soft agar assays; parameters: method as in PMID 22319590; settings: cited from earlier work
[12] = test system: patients who had progressed on at least 1 first-generation EGFR TKI; parameters: method as in PMID 31319994; settings: ruxolitinib in combination with afatinib, cited from earlier work
HCC-827 xenograft models = test system: HCC-827 xenograft models; parameters: method as in PMID 22319590; settings: cited from earlier work
HCC4006 xenograft model = test system: HCC4006 xenograft model; parameters: method as in PMID 25065853; settings: ruxolitinib plus erlotinib; cited from earlier work
[13] = erlotinib + momelotinib, all dose levels, n = 11
[14] = randomized phase 3 study, ref 33
[15] = human, in vivo, oral, momelotinib analyte, momelotinib 100 mg QD + erlotinib, n = 2
[16] = human, in vivo, oral, momelotinib analyte, momelotinib 200 mg QD + erlotinib, n = 2
[17] = momelotinib 200 mg QD vs 100 mg QD, with erlotinib, momelotinib analyte
[18] = with erlotinib, compared with ref 35

C#Cc1cccc(Nc2ncnc3cc(OCCOC)c(OCCOC)cc23)c1 [erlotinib]
patients who discontinued erlotinib due to AEs ([1]; 2 of 11 patients: grade 4 neutropenia, grade 1 hepatitis B): 18.2%
patients with dose reductions of erlotinib (all for AEs) ([1]; across all dose levels, with momelotinib): 4 patients
diarrhea considered related to erlotinib [1, 13]: 63.6%
dry skin considered related to erlotinib [1, 13]: 54.5%
paronychia considered related to erlotinib [1, 13]: 54.5%
neutropenia rate ([2]; randomized phase 3 study, ref 2): 0%
decreased neutrophils rate [2, 14]: 1.8%
neutropenia rate [2, 14]: 4.5%
neutropenia rate ([2]; randomized phase 3 study, ref 34): 6%
ANCs less than < 1000/mm^3 (grade 3 or greater) [2]: rarely observed
ORR, range over prior studies [2]: 62.7 to 83%
median PFS, range over prior studies [2]: 9.7 to 11 months
effect on STAT3 signaling [3]: induce feedback activation of STAT3 signaling
erlotinib exposure (Cmax and AUCtau), monotherapy vs combination ([4]; day 1 of cycle 1 vs day 15 of cycle 1 with momelotinib, all momelotinib dose level groups): comparable
Cmax ([4]; erlotinib monotherapy, Day 1, dose level 2A cohort, erlotinib 150 mg QD, n = 3): 2040.0 (42.5) ng/mL
Cmax ([4]; erlotinib with momelotinib 100 mg BID, Day 15, erlotinib 150 mg QD, n = 5): 1782.0 (17.3) ng/mL
Cmax ([4]; erlotinib with momelotinib 200 mg QD, Day 15, erlotinib 150 mg QD, n = 2): 1740.0 (17.9) ng/mL
Cmax ([4]; human, in vivo, oral, erlotinib monotherapy, Day 1, dose level 1 cohort, erlotinib 150 mg QD (1 patient 100 mg QD), n = 3, read-out: Cmax): 1810 ng/mL
inhibition of aldehyde oxidase (aldehyde oxidase): potent inhibitor

N#CCNC(=O)c1ccc(-c2ccnc(Nc3ccc(N4CCOCC4)cc3)n2)cc1 [momelotinib]
half-life ([5]; human, blood, oral, momelotinib analyte, momelotinib 100 mg BID + erlotinib, n = 4): 8.6 h
Cmax ([5]; human, in vivo, oral, momelotinib analyte, momelotinib 100 mg BID + erlotinib, n = 4): 884 ng/mL
Cmax [5, 15]: 528 ng/mL
half-life [5, 15]: 11.8 h
Cmax [5, 16]: 852 ng/mL
half-life [5, 16]: 10.2 h
Tmax ([5]; human, in vivo, oral, momelotinib analyte, momelotinib 200 mg QD + erlotinib, n = 2, read-out: Tmax): 1.5 h
dose proportionality of Cmax [5, 17]: slightly less than dose-proportional increase
dose proportionality of exposure (AUCtau) [5, 17]: slightly more than dose-proportional increase
Tmax ([5]; momelotinib analyte, momelotinib 100 mg BID + erlotinib, n = 4): 1.0 (1.0, 1.5) h
Tmax ([5]; momelotinib analyte, momelotinib 100 mg QD + erlotinib, n = 2): 1.0 (1.0, 1.0) h
time to momelotinib peak concentration after dosing ([5]; steady state, day 15 of cycle 1, with erlotinib): 1 to 2 h
momelotinib maximum concentration and exposure compared with earlier reports [5, 18]: higher than previously reported
momelotinib terminal elimination half-life compared with earlier reports [5, 18]: prolonged
grade 1 reactivation of hepatitis B ([1]; 1 year after start of momelotinib + erlotinib, led to discontinuation of both): 1 patient
treatment-related deaths ([1]; all dose levels, momelotinib + erlotinib): no treatment-related deaths observed
dose interruptions of momelotinib ([1]; human, in vivo): 5 n
dose reductions of momelotinib (due to AEs) ([1]; human, in vivo): 2 n
patients who discontinued momelotinib for AEs ([1]; human, in vivo): 27.3%
maximum tolerated dose (MTD) of momelotinib ([1]; in combination with standard dosing of erlotinib, 3 + 3 design, DLTs in first 28 days): 200 mg QD
efficacy vs historical control trametinib monotherapy ([6]; momelotinib added to trametinib, KRAS-mutated NSCLC): did not improve efficacy
neutropenia ([6]; momelotinib dosed up to 150 mg BID in combination with trametinib): no neutropenia event
pSTAT3 inhibition in IL-6–stimulated lymphocytes ([7]; after 2 weeks on treatment): temporarily inhibited pSTAT3 shortly after dosing
correlation between total plasma momelotinib concentration and pSTAT3 inhibition [7]: no correlation
efficacy vs historical control chemotherapy [8]: did not improve efficacy
impact of momelotinib on the PK of erlotinib ([4]; momelotinib 100 mg QD, 200 mg QD, 100 mg BID): no impact
EC50 [9]: 259 nM
reductions from baseline in sum of diameters of target lesions, range (EGFR-mutated NSCLC; momelotinib + erlotinib, across dose levels): 23.1 to 71.7%
mean best percentage change in the sum of diameters of target lesions (EGFR-mutated NSCLC; momelotinib + erlotinib, across dose levels, N = 11): −42.5 ± 17.1%
overall response rate (ORR), confirmed, all partial (EGFR-mutated NSCLC; momelotinib + erlotinib, all dose levels, 6 of 11 patients, 90% CI 27.1–80.0): 54.5%
progressive disease (PD) as best response (EGFR-mutated NSCLC; momelotinib + erlotinib, 1 patient, dose level 2B): 9.1%
stable disease (EGFR-mutated NSCLC; momelotinib + erlotinib, 4 of 11 patients): 36.4%
median duration of response (DoR) (EGFR-mutated NSCLC; momelotinib + erlotinib, 90% CI 4.4–9.6): 7.2 months
median PFS (EGFR-mutated NSCLC; momelotinib + erlotinib, Kaplan–Meier, 90% CI 6.2–12.4): 9.2 months
median OS (EGFR-mutated NSCLC; momelotinib + erlotinib, data finalization April 24, 2017): not reached
longest DoR (EGFR-mutated NSCLC; patient at dose level 2B, momelotinib 100 mg BID + erlotinib): 11.2 months

N#CC[C@H](C1CCCC1)n1cc(-c2ncnc3[nH]ccc23)cn1 [ruxolitinib]
objective response ([10]; 1 of 22 patients): 5%
median PFS ([10]; 95% CI 1.5–4.1): 2.2 months
colony formation [11]: decreased colony formation
objective response ([12]; patients with EGFR T790M, 5 of 20): 25%
median PFS ([12]; patients with EGFR T790M, 95% CI 2.5–7.3): 4.9 months
objective response ([12]; patients without EGFR T790M, 2 of 10): 20%
median PFS ([12]; patients without EGFR T790M, 95% CI 0.0–8.8): 3.1 months
tumor growth (HCC-827 xenograft models): slowed tumor growth
combination activity compared to EGFR inhibition alone (HCC4006 xenograft model): synergistic activity
